# From patent US20030224485A1, “Expression system for ABC transporters” (priority 2002, published 2003)
# Columns and labels:
# ABCR = biological target: T1, ABCR (Homo sapiens, UniProt P78363); assay: 8-azido-ATP/ADP trapping in membranes from transfected cells; assay type: binding; conditions: 5 μM 8-azido-[α-32P]ATP, 37° C.; 800 μM orthovanadate, 50 μM all-trans retinal, or 10 mM MgATP in wash step
# T1 construct: Membranes from transfected cells expressing either full-length ABCR (lanes 1 & 2) or co-expressing the N and C halves; expressed in transfected cells; host or cells: transfected cells (COS-1 or EBNA293)
# T1 sequence (P78363 whole entry): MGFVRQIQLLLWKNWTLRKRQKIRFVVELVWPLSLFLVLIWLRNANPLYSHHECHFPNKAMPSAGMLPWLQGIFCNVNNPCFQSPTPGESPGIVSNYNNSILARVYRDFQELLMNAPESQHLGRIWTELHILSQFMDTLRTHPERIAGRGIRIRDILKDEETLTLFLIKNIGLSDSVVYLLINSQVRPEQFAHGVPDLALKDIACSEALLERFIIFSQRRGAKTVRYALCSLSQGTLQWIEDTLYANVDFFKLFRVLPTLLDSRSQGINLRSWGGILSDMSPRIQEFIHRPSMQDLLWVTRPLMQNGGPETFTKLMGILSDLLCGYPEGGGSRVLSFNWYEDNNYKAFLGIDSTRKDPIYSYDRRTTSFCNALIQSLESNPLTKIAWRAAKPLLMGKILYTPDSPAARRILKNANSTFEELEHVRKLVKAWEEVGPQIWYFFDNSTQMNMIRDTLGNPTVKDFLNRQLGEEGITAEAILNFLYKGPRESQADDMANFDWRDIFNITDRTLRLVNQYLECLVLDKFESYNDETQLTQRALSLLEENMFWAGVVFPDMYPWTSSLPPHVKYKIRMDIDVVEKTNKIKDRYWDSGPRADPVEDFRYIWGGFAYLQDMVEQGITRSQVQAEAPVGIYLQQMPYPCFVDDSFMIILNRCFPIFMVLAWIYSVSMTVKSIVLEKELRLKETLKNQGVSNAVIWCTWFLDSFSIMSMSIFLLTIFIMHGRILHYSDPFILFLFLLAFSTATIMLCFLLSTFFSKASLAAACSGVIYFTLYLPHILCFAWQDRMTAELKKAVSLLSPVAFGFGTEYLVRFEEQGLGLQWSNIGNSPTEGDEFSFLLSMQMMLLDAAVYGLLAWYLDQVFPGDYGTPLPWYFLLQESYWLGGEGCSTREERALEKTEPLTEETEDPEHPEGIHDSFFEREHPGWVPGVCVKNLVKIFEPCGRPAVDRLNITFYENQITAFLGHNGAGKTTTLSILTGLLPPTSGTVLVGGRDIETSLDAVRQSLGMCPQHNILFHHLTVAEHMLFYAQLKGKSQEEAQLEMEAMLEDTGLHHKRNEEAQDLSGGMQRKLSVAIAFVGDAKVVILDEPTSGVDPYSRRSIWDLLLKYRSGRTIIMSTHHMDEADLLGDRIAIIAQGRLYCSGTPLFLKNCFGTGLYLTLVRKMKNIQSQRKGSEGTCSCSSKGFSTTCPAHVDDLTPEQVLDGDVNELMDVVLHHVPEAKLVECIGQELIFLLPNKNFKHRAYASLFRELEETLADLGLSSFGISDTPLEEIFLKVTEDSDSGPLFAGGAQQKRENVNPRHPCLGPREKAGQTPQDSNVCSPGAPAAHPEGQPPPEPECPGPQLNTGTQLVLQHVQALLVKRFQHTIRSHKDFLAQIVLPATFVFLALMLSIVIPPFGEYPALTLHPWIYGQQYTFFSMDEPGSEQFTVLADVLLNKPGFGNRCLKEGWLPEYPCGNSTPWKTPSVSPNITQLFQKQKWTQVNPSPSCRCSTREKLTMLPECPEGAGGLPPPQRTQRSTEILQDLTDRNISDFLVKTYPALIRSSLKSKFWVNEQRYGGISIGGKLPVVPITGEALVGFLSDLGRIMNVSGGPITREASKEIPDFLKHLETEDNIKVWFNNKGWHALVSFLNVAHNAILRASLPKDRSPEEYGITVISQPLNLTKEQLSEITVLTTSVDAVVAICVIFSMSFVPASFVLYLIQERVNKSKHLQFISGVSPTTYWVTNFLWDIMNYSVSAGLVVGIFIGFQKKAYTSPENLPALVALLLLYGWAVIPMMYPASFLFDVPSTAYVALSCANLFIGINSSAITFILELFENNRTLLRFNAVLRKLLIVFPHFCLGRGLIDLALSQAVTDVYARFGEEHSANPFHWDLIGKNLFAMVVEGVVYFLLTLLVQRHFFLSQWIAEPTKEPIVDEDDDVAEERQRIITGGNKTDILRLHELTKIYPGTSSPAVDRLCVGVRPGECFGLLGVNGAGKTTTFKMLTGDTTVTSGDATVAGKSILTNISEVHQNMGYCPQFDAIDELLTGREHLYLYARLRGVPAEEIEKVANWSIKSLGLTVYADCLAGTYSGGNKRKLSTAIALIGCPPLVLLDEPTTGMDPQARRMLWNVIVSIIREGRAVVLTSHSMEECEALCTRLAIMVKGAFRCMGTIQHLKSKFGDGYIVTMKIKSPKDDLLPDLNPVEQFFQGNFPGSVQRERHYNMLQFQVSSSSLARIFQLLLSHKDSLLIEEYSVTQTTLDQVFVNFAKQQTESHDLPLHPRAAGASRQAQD
# Protocol: 8-Azido-ATP Trapping—Membranes were incubated with 5 [M 8-azido-[α-^32P]ATP in 50 μl of labeling buffer with or without 800 μM sodium orthovanadate for 10 min at 37° C. All-trans retinal and 50 μM DTT were added where indicated. Binding was stopped by the addition of ice-cold 20 mM Tris-HCl, pH 7.4, the membranes were collected by centrifugation and washed one more time. Samples exposed to orthovanadate were washed in the presence of 800 μM orthovanadate. In some experiments MgATP (10 mM) was included in the wash step, but had no effect. The membranes were suspended in 30 μl of 20 mM Tris-HCl, pH 7.4, irradiated with UV light for 10 min on ice, diluted to 200 μl with TBS, pH 7.4, and solubilized as described above for azido-ATP binding.
# To gain more insight into the properties of the NBD of ABCR, trapping experiments were carried out using 8-azido-[α^32P]ATP.
# [1] = biological target: T2, co-expressed N and C halves of ABCR (Homo sapiens, UniProt P78363); assay: 8-azido-ATP photoaffinity labeling of membranes from transfected cells; assay type: binding; conditions: 1 mM ATP added prior to labeling with 1.5 μM 8-azido-[α-32P]ATP; FIG. 5A lane 4; C-half labeled
# T2 construct: N-half (amino acids 1-1325) and C-half (amino acids 1326-2273) of ABCR; added initiator Met (ATG in the forward primer, read by me) (N); made in house; host or cells: COS-1 (co-transfection)
# T2 sequence (P78363 1-1325): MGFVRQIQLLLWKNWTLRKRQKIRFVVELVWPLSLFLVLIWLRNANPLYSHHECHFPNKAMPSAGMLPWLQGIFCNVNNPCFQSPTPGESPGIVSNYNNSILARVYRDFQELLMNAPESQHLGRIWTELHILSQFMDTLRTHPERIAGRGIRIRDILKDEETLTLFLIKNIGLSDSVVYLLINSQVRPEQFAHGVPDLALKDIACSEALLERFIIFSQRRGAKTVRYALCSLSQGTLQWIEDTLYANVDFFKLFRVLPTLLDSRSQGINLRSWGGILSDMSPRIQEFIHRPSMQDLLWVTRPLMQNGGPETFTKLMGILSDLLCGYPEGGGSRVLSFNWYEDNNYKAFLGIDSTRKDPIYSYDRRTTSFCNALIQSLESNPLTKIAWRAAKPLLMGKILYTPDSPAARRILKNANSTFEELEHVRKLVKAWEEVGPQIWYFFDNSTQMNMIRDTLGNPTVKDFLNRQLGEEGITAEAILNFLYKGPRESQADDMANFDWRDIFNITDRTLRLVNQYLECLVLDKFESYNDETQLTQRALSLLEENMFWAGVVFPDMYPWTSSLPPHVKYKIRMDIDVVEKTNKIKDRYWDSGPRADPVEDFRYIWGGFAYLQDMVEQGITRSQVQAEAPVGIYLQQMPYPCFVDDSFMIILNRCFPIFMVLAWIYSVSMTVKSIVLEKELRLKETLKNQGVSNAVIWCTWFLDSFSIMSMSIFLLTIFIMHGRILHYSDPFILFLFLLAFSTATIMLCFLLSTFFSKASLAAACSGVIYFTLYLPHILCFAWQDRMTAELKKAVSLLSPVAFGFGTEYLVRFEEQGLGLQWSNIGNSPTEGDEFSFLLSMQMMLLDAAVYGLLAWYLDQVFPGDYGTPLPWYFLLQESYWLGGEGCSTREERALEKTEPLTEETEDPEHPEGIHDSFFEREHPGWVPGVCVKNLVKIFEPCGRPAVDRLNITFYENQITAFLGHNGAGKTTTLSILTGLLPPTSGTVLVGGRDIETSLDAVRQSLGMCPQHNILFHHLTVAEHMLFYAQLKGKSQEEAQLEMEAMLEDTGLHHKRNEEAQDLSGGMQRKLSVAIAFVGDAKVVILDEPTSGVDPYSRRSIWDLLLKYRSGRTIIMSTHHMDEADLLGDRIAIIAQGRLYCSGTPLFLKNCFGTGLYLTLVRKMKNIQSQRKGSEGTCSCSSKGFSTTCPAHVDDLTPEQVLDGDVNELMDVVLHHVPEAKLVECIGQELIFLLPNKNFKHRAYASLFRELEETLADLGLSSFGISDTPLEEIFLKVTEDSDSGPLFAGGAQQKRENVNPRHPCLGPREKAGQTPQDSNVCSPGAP
# T2 sequence (P78363 1326-2273): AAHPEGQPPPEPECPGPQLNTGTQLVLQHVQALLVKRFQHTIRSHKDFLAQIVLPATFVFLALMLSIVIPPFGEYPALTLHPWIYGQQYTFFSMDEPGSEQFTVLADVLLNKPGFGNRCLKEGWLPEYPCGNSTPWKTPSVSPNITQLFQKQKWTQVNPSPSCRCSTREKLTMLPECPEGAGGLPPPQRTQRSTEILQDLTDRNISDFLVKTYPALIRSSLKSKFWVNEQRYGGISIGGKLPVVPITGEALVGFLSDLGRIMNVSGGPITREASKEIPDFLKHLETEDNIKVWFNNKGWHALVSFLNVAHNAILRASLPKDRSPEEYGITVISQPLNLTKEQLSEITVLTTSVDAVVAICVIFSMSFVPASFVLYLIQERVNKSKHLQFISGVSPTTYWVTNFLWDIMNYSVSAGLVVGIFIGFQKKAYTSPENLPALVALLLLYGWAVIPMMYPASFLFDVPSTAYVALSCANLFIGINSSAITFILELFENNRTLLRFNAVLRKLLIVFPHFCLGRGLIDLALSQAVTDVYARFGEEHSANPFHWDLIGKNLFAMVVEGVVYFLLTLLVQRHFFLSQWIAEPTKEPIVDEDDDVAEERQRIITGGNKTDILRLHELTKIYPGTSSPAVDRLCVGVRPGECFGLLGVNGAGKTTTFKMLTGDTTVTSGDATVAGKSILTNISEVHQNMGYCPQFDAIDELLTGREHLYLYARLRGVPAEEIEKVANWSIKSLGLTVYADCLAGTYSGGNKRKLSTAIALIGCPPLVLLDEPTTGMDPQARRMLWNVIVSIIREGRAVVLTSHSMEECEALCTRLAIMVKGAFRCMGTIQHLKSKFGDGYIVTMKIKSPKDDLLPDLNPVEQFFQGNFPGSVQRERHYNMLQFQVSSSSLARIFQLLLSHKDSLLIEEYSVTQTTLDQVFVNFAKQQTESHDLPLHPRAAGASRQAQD
# Protocol: (§1) Preparation of Membranes—Membranes from transfected cells were prepared as described previously (Bungert, S., Molday, L. L., and Molday, R. S. (2001) J Biol Chem 276(26), 23539-46). In some experiments, the protocol was scaled down and the cell homogenate from one or two 10-cm dishes, after passing through a 26-gauge needle (6 times), was centrifuged on a discontinuous gradient consisting of 5% and 60% sucrose for 30 min at 30,000 rpm (60,000×g) in a TLS55 rotor (Beckman Optima TL ultracentrifuge).
# (§2) 8-Azido-ATP Photoaffinity Labeling—Membranes (50-150 μg protein) in 50 μl of labeling buffer (20 mM Tris-HCl, pH 7.4, 140 mM NaCl, 5 mM MgCl2) were incubated with 1-4 μM 8-azido-[α-^32P]ATP (Perkin-Elmer Life Science; 20 Ci/mmol) on ice, with gentle shaking, under UV light (254 nm) for 10 min at a distance of 10 cm. Ice-cold 20 mM Tris-HCl, pH 7.4, was added and the membranes were collected by centrifugation (TLA45 rotor, 55000 g, 15 min). The membrane suspension (200 μl in TBS [Tris-HCl, pH 7.4, 140 mM NaCl]) was added to 200 μl of 2% Triton X-100 in TBS, pH 7.4). After 30 min on ice, the cleared extract was mixed with 25 μl antibody coupled to Sepharose 2B for 1-12 h at 4° C. The beads were washed 4 times in TBS containing 0.2% Triton X-100 and eluted twice, 30 μl each, in 4% SDS, 0.2% Triton X-100, TBS. […]
# full-length ABCR [2] = biological target: T3, full-length ABCR (Homo sapiens, UniProt P78363); assay: as above; assay type: binding; design: Membranes from transfected cells expressing either full-length ABCR (lanes 1 & 2); expressed in transfected cells; host or cells: transfected cells (COS-1 or EBNA293); conditions: 1 mM ATP added prior to labeling with 1.5 μM 8-azido-[α-32P]ATP; FIG. 5A lane 2
# T3 sequence (P78363 whole entry): as the sequence (P78363 whole entry) above
# Protocol: as §1, §2
# [3] = biological target: T2, co-expressed N and C halves of ABCR; assay: Retinal-stimulated ATPase activity of purified protein reconstituted in lipid vesicles; assay type: biochemical; conditions: co-expressed in COS-1 cells, purified on Rim 3F4 column, 50 μM [α32P]ATP
# Protocol: (§3) Membranes (from two 10 cm dishes) were solubilized in 0.5 ml of 1% Triton-X100 in Buffer A (140 mM NaCl, 20 mM Tris-HCl, pH 7.4) for 20 min on ice. For ATPase assays, the membrane preparation step was omitted and the cell suspension was solubilized directly in Buffer B (10 mg/ml soybean phospholipids, 10% glycerol, 1 mM dithiothreitol, 100 mM NaCl, 3 mM MgCl2, 50 mM NaHEPES, pH 7.4) containing 18 mM CHAPS. The supernatant after a 10 min centrifugation at 40,000 rpm (TLA100.4 rotor) was mixed with 50 μl Rim3F4 Sepharose 2B for 1 h at 4° C. The beads were washed 6 times in Buffer A containing 0.2% Triton X-100 or Buffer B containing 10 mM CHAPS and eluted with 4% SDS (for electrophoresis) or 0.2 mg/ml Rim3F4 peptide (for reconstitution and determination of ATPase activity). Purified protein (24 μl) was incubated with 6 μl of 50 mg/ml lipid (1:1 mixture of dioleoylphosphatidylethanolamine and brain polar lipid, by weight) and 3 μl n-octylglucoside for 30 min on ice. The mixture was diluted rapidly with 200 μl of Buffer C (1 mM dithiothreitol, 140 mM NaCl, 25 mM NaHEPES, pH 7.4) and passed through a 200 μl Extracti-gel column (Pierce). The flow-through containing the reconstituted protein was used for determination of ATPase activity.
# (§4) ATPase activity was measured as described previously (Ahn, J., Wong, J. T., and Molday, R. S. (2000) J Biol Chem 275(27), 20399-405) using 50 μM [α^32P]ATP and thin layer chromatography. The all-trans retinal concentration was determined spectrophotometrically (λ383 nm=42.88 mM^−1 cm^−1). Protein concentration was estimated from the eluate before reconstitution by laser densitometry of Coomassie blue stained gels using bovine serum albumin as a standard. […] Direct protein measurements after reconstitution by densitometry of Western blots was about half of that in the eluate. […]
# (§5) ATPase Activity of Expressed N and C Halves—The basal and retinal activated ATPase activity of full-length ABCR and the N and C halves individually or co-expressed in COS-1 cells was determined after immunoaffinity purification and reconstitution into lipid vesicles. […]
# [4] = biological target: T4, individually expressed C half of ABCR (Homo sapiens, UniProt P78363); assay: as above; assay type: biochemical; conditions: individually expressed in COS-1 cells
# T4 construct: N-half (amino acids 1-1325) and C-half (amino acids 1326-2273) of ABCR; added initiator Met (ATG in the forward primer, read by me) (N); made in house; host or cells: COS-1
# T4 sequence (P78363 1326-2273): T2 sequence (P78363 1326-2273)
# Protocol: as §3, §4, §5
# [5] = biological target: T5, individually expressed N half of ABCR containing 1D4 epitope tag (N*) (Homo sapiens, UniProt P78363); assay: as above; assay type: biochemical; conditions: individually expressed in COS-1 cells, purified on Rho1D4-Sepharose
# T5 construct: N-half (amino acids 1-1325) and C-half (amino acids 1326-2273) of ABCR; made in house; host or cells: COS-1
# T5 sequence (P78363 1-1325): T2 sequence (P78363 1-1325)
# Protocol: as §3, §4, §5
# full-length ABCR [6] = biological target: T3, full-length ABCR; assay: as above; assay type: biochemical; design: Membranes from transfected cells expressing either full-length ABCR (lanes 1 & 2) or co-expressing the N and C halves; expressed in transfected cells; host or cells: transfected cells (COS-1 or EBNA293); conditions: expressed in COS-1 cells, purified on Rim 3F4 column, 50 μM [α32P]ATP
# Protocol: Membranes (from two 10 cm dishes) were solubilized in 0.5 ml of 1% Triton-X100 in Buffer A (140 mM NaCl, 20 mM Tris-HCl, pH 7.4) for 20 min on ice. For ATPase assays, the membrane preparation step was omitted and the cell suspension was solubilized directly in Buffer B (10 mg/ml soybean phospholipids, 10% glycerol, 1 mM dithiothreitol, 100 mM NaCl, 3 mM MgCl2, 50 mM NaHEPES, pH 7.4) containing 18 mM CHAPS. The supernatant after a 10 min centrifugation at 40,000 rpm (TLA100.4 rotor) was mixed with 50 μl Rim3F4 Sepharose 2B for 1 h at 4° C. The beads were washed 6 times in Buffer A containing 0.2% Triton X-100 or Buffer B containing 10 mM CHAPS and eluted with 4% SDS (for electrophoresis) or 0.2 mg/ml Rim3F4 peptide (for reconstitution and determination of ATPase activity). […]
# ATPase activity was measured as described previously (Ahn, J., Wong, J. T., and Molday, R. S. (2000) J Biol Chem 275(27), 20399-405) using 50 μM [α^32P]ATP and thin layer chromatography. The all-trans retinal concentration was determined spectrophotometrically (λ383 nm=42.88 mM^−1 cm^−1). […]
# as §5
compound,measurement,setting,value
[Na+].[Na+].[Na+].[O]=[V]([O-])([O-])[O-] [sodium orthovanadate],effect on 8-azido ATP/ADP trapping,ABCR,not dependent
Nc1ncnc2c1ncn2[C@@H]1O[C@H](COP(=O)(O)OP(=O)([O-])OP(=O)([O-])O)[C@@H](O)[C@H]1O.[Mg+2] [MgATP],effect on 8-azido ATP/ADP trapping,ABCR,had no effect
Nc1ncnc2c1ncn2[C@@H]1O[C@H](COP(=O)(O)OP(=O)(O)OP(=O)(O)O)[C@@H](O)[C@H]1O [ATP],effect on 8-azido-ATP photoaffinity labeling,[1],essentially abolished
same,effect on 8-azido-ATP photoaffinity labeling,full-length ABCR [2],essentially abolished
CC1=C(/C=C/C(C)=C/C=C/C(C)=C/C=O)C(C)(C)CCC1 [all-trans retinal],stimulation of ATPase activity by all-trans retinal,[3],1-2 fold
same,stimulation of ATPase activity by retinal,[4],not stimulated
same,stimulation of ATPase activity by retinal,[5],not stimulated
same,effect on 8-azido ATP/ADP trapping,ABCR,not dependent on sodium orthovanadate or influenced
same,stimulation of ATPase activity by all-trans retinal,full-length ABCR [6],1-2 fold
